Structures are written as SMILES.

The text below walks through data of patent US20240150342A1, “ESTROGEN-RELATED RECEPTOR ALPHA MODULATORS” (LEAD PHARMA HOLDING B.V., priority 2019, published 2024).

One assay relates to B16F10 melanoma. As to the kind of experiment: B16F10 Melanoma Syngeneic Mouse Model. The conditions noted are these: 30 mpk p.o., q.d., B16F10 allograft in C57BL/6 mice. It is filed as in vivo. Here is the method: Example inhibitor 80 was tested for its ability to inhibit tumor growth in a B16F10 melanoma syngeneic mouse model. Cell line and tumor model: B16F10 melanoma cell line derived allograft model in C57BL/6 mice.
Mouse B16F10 melanoma cells were sourced from American Type Culture Collection (ATCC), USA. Cells were grown in DMEM (Invitrogen, Catalogue No. 31600-034) supplemented with 10% FBS (Invitrogen, Catalogue No. 10438-026), and 1% penicillin streptomycin (Thermo Fisher Scientific, Catalogue No. 15140-122). To establish allografts, the cells were harvested by trypsinization when they reach around 70 to 80% confluence and 0.1 million B16F10 cells were suspended in 50 μl of serum free medium and mixed at 1:1 ratio with matrigel before implanting subcutaneously into the dorsal right flank of mice using a 1 mL BD syringe attached to a 24-gauge needle.
B16F10 tumor grafts were measured after 5 days of cell inoculation once they became palpable. […]
Tumor dimensions—length (I) and breadth (b)—were measured by caliper on the day of animal randomization based on tumor volume (Day 1) and thrice weekly thereafter until study termination. Tumor volumes were calculated using the formula b^2*I*0.52 where I=length, b=breadth (Dusan Djokovic et al., BMC Cancer, 2010, 10:641). Tumor growth inhibition was calculated after normalizing the tumor volume on a given day to that on Day 1. […]

In assay [1] the target is T1, ERRα ligand binding domain (ERRα-LBD) (Homo sapiens, UniProt P11474).
T1 construct: made in house; host or cells: E. coli
T1 sequence (P11474 193-421 limits assumed): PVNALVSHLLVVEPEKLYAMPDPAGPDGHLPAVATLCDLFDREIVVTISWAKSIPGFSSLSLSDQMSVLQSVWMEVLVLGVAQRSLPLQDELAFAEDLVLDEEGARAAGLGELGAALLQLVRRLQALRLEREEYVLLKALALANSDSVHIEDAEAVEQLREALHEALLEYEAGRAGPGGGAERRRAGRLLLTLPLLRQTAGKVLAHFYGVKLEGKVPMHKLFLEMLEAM
As to the kind of experiment: ERRα AlphaScreen Assay. It is filed as biochemical. The conditions noted are these: disruption of binding of ERRα-LBD protein to biotin-PGC1α-3 co-activator peptide; read-out: mean pIC50 (converted). An outline of the steps: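 E. coli-expressed 6His-SUMO-ERRα-LBD (0.81 nM) incubated with compound and donor/acceptor beads 1 h, then 2 h with 15 nM biotin-PGC1α-3 peptide (aa 202–220); room temperature, Tris pH 7.5 buffer with TCEP, 1% DMSO, triplicates. Loss of co-activator binding read by AlphaScreen; four-parameter dose-response fit.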
A general note: In Alpha technology, singlet oxygen from a donor bead excites a nearby acceptor bead.

Another assay concerns the target T2, full length ERRα (Homo sapiens, UniProt P11474).
T2 construct: an over-expression construct coding full length ERRα; expressed in transfected cells; host or cells: SK-BR-3 cells, transient co-transfection of pLP2124 (pcDNA3.1/Hygro(+) background) and reporter pLP2175
T2 sequence (P11474 1-423): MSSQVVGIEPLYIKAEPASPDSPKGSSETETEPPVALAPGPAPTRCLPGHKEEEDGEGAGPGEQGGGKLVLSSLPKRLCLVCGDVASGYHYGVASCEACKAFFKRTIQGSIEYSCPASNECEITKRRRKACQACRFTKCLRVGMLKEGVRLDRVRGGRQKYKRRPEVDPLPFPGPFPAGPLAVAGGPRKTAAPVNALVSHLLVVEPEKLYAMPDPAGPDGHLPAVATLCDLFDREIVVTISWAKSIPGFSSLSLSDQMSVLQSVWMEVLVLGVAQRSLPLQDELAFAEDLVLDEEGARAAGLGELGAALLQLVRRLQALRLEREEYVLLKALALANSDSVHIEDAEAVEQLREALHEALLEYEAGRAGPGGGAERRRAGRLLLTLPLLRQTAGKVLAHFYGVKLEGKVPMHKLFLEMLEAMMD
Briefly: Full Length ERRα Reporter Gene Assay. The conditions noted are these: SK-BR-3 cells, ERRα-RE luciferase reporter, overnight incubation; read-out: mean pIC50 (converted). It is filed as cell-based. The text has this: A method was established to quantitatively screen the potency of compounds with inverse agonistic activity on the nuclear receptor ERRα of the human species. The assay allows intra-cellular screening of ERRα inverse agonists in SK-BR-3 cells using an over-expression construct coding full length ERRα and a reporter construct containing an ERRα Response Element (RE) and a luciferase gene for read out. The activity is expressed in logIC50 values and can be used to determine SAR of compound families or to de-select compounds.
In this assay, reporter cells are obtained by transient co-transfection of two constructs in SK-BR-3 cells using standard transfection techniques. The first construct contains a response element of the nuclear receptor ERRα (Plasmid pLP2175, Reporter construct ERRα-RE/luc2P, cloned variant of ERRα_v2_synthRE, Switchgear Genomics, Catalog Number S900089). This sequence drives the transcription of the luciferase reporter gene in response to binding of an ERRα protein encoded by the second construct (Plasmid pLP2124: full length ERRα expression construct using pcDNA3.1/Hygro(+) as background, Invitrogen Catalog Number V87020).
The day after transfection, cells were plated into 96 well plates, the test compound was added and the plates were incubated overnight. Subsequently, the firefly luciferase activity was quantified using luciferase detection reagent and luminescence readout.
Transfection is performed on pre-seeded SK-BR-3 cells in a T175 flask. One transfected T175 flask is sufficient for seeding 3 to 4 MW96 plates the next day, depending on the confluency of the transfected cells.
Two different media are used in this protocol for cell treatment: 1) Culture medium, i.e. McCoy's 5a with phenol red (BioWhittaker Supplier Number 12-688F), 10% FBS and 1× Penstrep.; and, 2) Assay medium, i.e. McCoy's 5a Medium phenol red free (HyClone Product Code SH30270.01) with 2% Charcoal Stripped FBS and 1× Penstrep. Compound dilutions are prepared in assay medium.
Cells are seeded at least 2 days in advance to allow the cells to adhere well to flask before transfection. Cells should be 50-80% confluent at the day of transfection.
SKBR3 cells were transfected with the transcriptional reporter construct pLP2175 and the ERRα expression construct pLP2124 (as described above).
68 μL of Lipofectamine LTX transfection reagent (Invitrogen Catalog Number 15338-100) was added dropwise to 8.9 ml Opti-MEM I Reduced Serum Medium (Gibco Catalog Number 51985-026) and incubated at room temperature for 5 to 20 minutes. 8.9 ml of this reagent mixture was added to 22 μg pLP2175+22 μg pLP2124 (ratio 1:1 and total volume 10 ml), and incubated at room temperature for 25 minutes.
10 minutes before adding the transfection mix to SKBR3 cells in a T175 flask, the culture medium was refreshed with 20 mL culture medium. Subsequently, the 10 mL DNA-Opti-MEM-Lipofectamine mixture was gently added to the cells, followed by overnight (16-24 hours) incubation at 37° C. and 5% CO2.
To harvest SKBR3 cells from a T175 flask, first the medium was removed. Subsequently, cells were washed with Phosphate Buffered Saline (PBS) (Lonza), after which the PBS was removed. To dissociate the cells, 2 ml of TrypLE Express (I nvitrogen) was added to the flask, followed by incubation at 37° C. for 5 minutes. The flask was tapped until cells were detached from the bottom. Cells were collected in 8 mL of culture medium (McCoy's 5a, 10% FBS, penstrep), to achieve a single cell suspension. After cell count, cells were spun down for 5 minutes at 300 g. Next cell pellets were re-suspended to 25000 cells/80 μl assay medium (McCoy's 5a phenol red free, 2% charcoal stripped FBS, penstrep).
For compound screening, the cells were harvested (as described above). 80 μL of cell suspension (25,000 cells) was plated per well into a white, flat bottom, tissue culture treated, 96 well screening plates (Greiner). […]
Background: In a reporter assay the amount or activity of a reporter protein is the signal.

As to `COc1cc(C2CC(=O)Nc3n[nH]cc32)ccc1Oc1cc(C(F)(F)F)cc(C(F)(F)F)c1` (single isomer, unassigned; (-)) [Example 80, (−)-4-{4-[3,5-bis(trifluoromethyl)phenoxy]-3-methoxyphenyl}-2H,4H,5H,6H,7H-pyrazolo[3,4-b]pyridin-6-one], in the assay with B16F10 melanoma, the “Tumor Volume (mm^3) Day 13” value is recorded as 684 ± 82 mm^3. The “Tumor Growth Inhibition (%)” value in the assay with B16F10 melanoma (Day 13) was found to be 64%. Moreover, the IC50 in assay [1] is not above 10 nM.

Turning to `CCc1ccc(Oc2ccc(-c3cc(=O)[nH]c4n[nH]cc34)cc2OC)c(C(C)(C)C)c1` [Example 67, 4-[4-(2-tert-butyl-4-ethylphenoxy)-3-methoxyphenyl]-2H,6H,7H-pyrazolo[3,4-b]pyridin-6-one], the IC50 at full length ERRα is not above 316 nM; in assay [1], not above 10 nM.

As for `COc1cc(C2CC(=O)Nc3n[nH]cc32)ccc1Oc1cc(C)cc(C(F)(F)F)c1` (single isomer, unassigned; (-)) [Example 84, (−)-4-{3-methoxy-4-[3-methyl-5-(trifluoromethyl)phenoxy]phenyl}-2H,4H,5H,6H,7H-pyrazolo[3,4-b]pyridin-6-one], the IC50 was not above 316 nM on full length ERRα and not above 10 nM in assay [1].

Turning to `COc1cc(C2CC(=O)Nc3n[nH]cc32)ccc1Oc1ccccc1S(F)(F)(F)(F)F` (centres unmarked) [Example 40, 4-{3-methoxy-4-[2-(pentafluoro-λ^6-sulfanyl)phenoxy]phenyl}-2H,4H,5H,6H,7H-pyrazolo[3,4-b]pyridin-6-one], the IC50 at full length ERRα is not above 316 nM; in assay [1] it was 10 to 100 nM.

As for `COc1cc(C2CC(=O)Nc3n[nH]cc32)ccc1Oc1ccc(Br)cc1C(C)(C)C` (centres unmarked) [Example 33, 4-[4-(4-bromo-2-tert-butylphenoxy)-3-methoxyphenyl]-2H,4H,5H,6H,7H-pyrazolo[3,4-b]pyridin-6-one], the IC50 was not above 316 nM on full length ERRα and not above 10 nM in assay [1].

For the compound `COc1cc(C2CC(=O)Nc3n[nH]cc32)ccc1Oc1ccc(C(C)(C)C)cc1C(C)(C)C` (centres unmarked) [Example 37, 4-[4-(2,4-di-tert-butylphenoxy)-3-methoxyphenyl]-2H,4H,5H,6H,7H-pyrazolo[3,4-b]pyridin-6-one], the IC50 is not above 316 nM on full length ERRα and not above 10 nM in assay [1].

Consider `COc1cc(C2CC(=O)Nc3n[nH]cc32)ccc1Oc1cc(C)cc(C(F)(F)F)c1` (centres unmarked) [Example 63, 4-{3-methoxy-4-[3-methyl-5-(trifluoromethyl)phenoxy]phenyl}-2H,4H,5H,6H,7H-pyrazolo[3,4-b]pyridin-6-one], for which the IC50 was not above 316 nM at full length ERRα and not above 10 nM in assay [1].

As for `CCc1ccc(Oc2ccc(C3CC(=O)Nc4n[nH]cc43)cc2OC)c(C(C)(C)C)c1` (centres unmarked) [Example 32, 4-[4-(2-tert-butyl-4-ethylphenoxy)-3-methoxyphenyl]-2H,4H,5H,6H,7H-pyrazolo[3,4-b]pyridin-6-one], the results for the IC50 (on full length ERRα; in assay [1]) were not above 316 nM and not above 10 nM, respectively.
